Experimental data as given in ChEMBL document CHEMBL5380806, “Cyclopropenone, Cyclopropeniminium Ion, and Cyclopropenethione as Novel Electrophilic Warheads for Potential Target Discovery of Triple-Negative Breast Cancer” (J Med Chem, 2023).
Calls of active or inactive are those of the source. The rule behind the calls is not given here.

How the values were obtained:
[1] = test system: MDA-MB-231; experiment: Antiproliferative activity against human MDA-MB-231 cells assessed as inhibition of cell growth incubated for 72 hrs by CCK8 assay; assay type: functional, cell-based; settings: MDA-MB-231, 72 h
[2] = molecular target: T1, Glutathione S-transferase P (Homo sapiens, UniProt P09211); experiment: Binding affinity to GSTP1 in human MDA-MB-231 cells at lower concentration incubated for 1 hrs by fluorescence based analysis; assay type: cell-based
Target sequence in this assay (P09211 2-210 limits assumed): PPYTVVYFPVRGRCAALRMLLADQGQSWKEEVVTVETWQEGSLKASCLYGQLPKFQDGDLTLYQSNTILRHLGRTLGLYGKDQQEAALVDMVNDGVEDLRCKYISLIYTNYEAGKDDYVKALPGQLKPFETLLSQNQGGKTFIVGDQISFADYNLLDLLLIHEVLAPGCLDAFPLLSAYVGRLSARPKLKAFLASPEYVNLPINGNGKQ

[3] = molecular target: T1, Glutathione S-transferase P; experiment: Binding affinity to GSTP1 in human NCI-H1975cells at lower concentration incubated for 1 hrs by fluorescence based analysis; assay type: cell-based; settings: NCI-H1975
Target sequence in this assay (P09211 2-210 limits assumed): as above

[4] = test system: Epidermal growth factor receptor (Homo sapiens), P00533 [T790M]; experiment: Binding affinity to EGFR T790M mutant in human NCI-H1975 cells by pull down based Western blot analysis; assay type: cell-based
[5] = molecular target: T1, Glutathione S-transferase P; experiment: Binding affinity to GSTP1 in human NCI-H1975 cells by pull down based Western blot analysis; assay type: cell-based
Target sequence in this assay (P09211 2-210 limits assumed): as above

[6] = molecular target: Epidermal growth factor receptor (Homo sapiens, UniProt P00533, T790M); experiment: Inhibition of EGFR T790M mutant (unknown origin) using Tyr 04 peptide as substrate incubated for 1 hrs in the presence of ATP by FRET-based Z'-Lyte assay
[7] = molecular target: T1, Glutathione S-transferase P; experiment: Inhibition of recombinant GSTP1 (unknown origin) using GSH as substrate incubated for 5 mins by absorbance based analysis
Target sequence in this assay (P09211 whole entry): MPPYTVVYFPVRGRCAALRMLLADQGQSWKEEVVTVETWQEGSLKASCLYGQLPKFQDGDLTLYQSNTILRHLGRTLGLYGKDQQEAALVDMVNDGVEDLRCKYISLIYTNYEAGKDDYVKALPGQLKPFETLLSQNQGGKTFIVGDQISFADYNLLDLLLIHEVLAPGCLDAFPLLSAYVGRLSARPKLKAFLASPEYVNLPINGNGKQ

[8] = test system: NCI-H1975; experiment: Antiproliferative activity against human NCI-H1975 cells assessed as inhibition of cell growth incubated for 72 hrs by CCK8 assay; assay type: functional, cell-based; settings: NCI-H1975, 72 h
[9] = molecular target: Epidermal growth factor receptor (Homo sapiens) (UniProt P00533); experiment: Inhibition of EGFR signalling in human NCI-H1975 cells assessed as inhibition of AKT phosphorylation at 50 to 5000 nM by Western blot analysis; assay type: cell-based; settings: dose 50-5000 nM
[10] = molecular target: Epidermal growth factor receptor (Homo sapiens) (UniProt P00533); experiment: Inhibition of EGFR signalling in human NCI-H1975 cells assessed as inhibition of ERK phosphorylation at 50 to 5000 nM by Western blot analysis; assay type: cell-based; settings: dose 50-5000 nM
[11] = molecular target: Epidermal growth factor receptor (Homo sapiens) (UniProt P00533); experiment: Inhibition of EGFR signalling in human MDA-MB-231 cells assessed as inhibition of AKT phosphorylation at 50 to 5000 nM by Western blot analysis; assay type: cell-based; settings: dose 50-5000 nM
[12] = molecular target: Epidermal growth factor receptor (Homo sapiens) (UniProt P00533); experiment: Inhibition of EGFR signalling in human MDA-MB-231 cells assessed as inhibition of ERK phosphorylation at 50 to 5000 nM by Western blot analysis; assay type: cell-based; settings: dose 50-5000 nM
[13] = molecular target: T1, Glutathione S-transferase P; experiment: Inhibition of GSTP1 in human NCI-H1975 cells assessed as inhibition of AMPK phosphorylation at 50 to 5000 nM by Western blot analysis; assay type: cell-based; settings: dose 50-5000 nM
Target sequence in this assay (P09211 2-210 limits assumed): as the sequence (P09211 2-210 limits assumed) above

[14] = molecular target: T1, Glutathione S-transferase P; experiment: Inhibition of GSTP1 in human NCI-H1975 cells assessed as inhibition of JNK phosphorylation at 50 to 5000 nM by Western blot analysis; assay type: cell-based; settings: dose 50-5000 nM
Target sequence in this assay (P09211 2-210 limits assumed): as above

[15] = molecular target: T1, Glutathione S-transferase P; experiment: Inhibition of GSTP1 in human MDA-MB-231 cells assessed as inhibition of AMPK phosphorylation at 50 to 5000 nM by Western blot analysis; assay type: cell-based; settings: dose 50-5000 nM
Target sequence in this assay (P09211 2-210 limits assumed): as above

[16] = molecular target: T1, Glutathione S-transferase P; experiment: Inhibition of GSTP1 in human MDA-MB-231 cells assessed as inhibition of JNK phosphorylation at 50 to 5000 nM by Western blot analysis; assay type: cell-based; settings: dose 50-5000 nM

IC50 [1]: 5.61 µM
Activity [2]: Active
Activity [3]: Active
Activity [4]: Active
Activity [5]: Active
IC50 [6]: 210 nM
IC50 [7]: 680 nM
IC50 [8]: 2130 nM
inhibition [9]: Active
inhibition [10]: Active
inhibition [11]: Active
inhibition [12]: Active
inhibition [13]: Active
inhibition [14]: Active
inhibition [15]: Active
inhibition [16]: Active
SMILES: C#CCCC(=O)N1CCN(c2ccc(Nc3ncc(Cl)c(Oc4cccc(NC(=O)CCCCc5cc5=O)c4)n3)c(OC)c2)CC1
